Reference: ChEMBL document CHEMBL3734695, “Cytotoxic potential of dispirooxindolo/acenaphthoquino andrographolide derivatives against MCF-7 cell line” (Medchemcomm, 2015)
The source made the active and inactive calls. No cut-off for these calls is given here.

Legend:
[1] = tested on: MCF7; experiment: Induction of apoptosis in human MCF7 cells assessed as early apoptotic cells at IC50 after 48 hrs by annexin V-FITC/propidium iodide staining based flow cytometric analysis (reference value: 0.1%); format: functional
[2] = tested on: MCF7; experiment: Induction of apoptosis in human MCF7 cells assessed as viable cells at IC50 after 24 hrs by annexin V-FITC/propidium iodide staining based flow cytometric analysis (reference value: 99.8%); format: functional
[3] = tested on: MCF7; experiment: Induction of apoptosis in human MCF7 cells assessed as viable cells at IC50 after 48 hrs by annexin V-FITC/propidium iodide staining based flow cytometric analysis (reference value: 99.8%); format: functional
[4] = tested on: MCF7; experiment: Cytotoxicity against human MCF7 cells assessed as growth inhibition after 72 hrs by MTT assay; format: functional, cell-based; conditions: MCF7, 72 h
[5] = tested on: MCF7; experiment: Induction of apoptosis in human MCF7 cells assessed as increase in cleaved PARP-1 level at IC50 after 48 hrs by western blot analysis; format: functional, cell-based
[6] = tested on: MCF7; experiment: Induction of apoptosis in human MCF7 cells assessed as dead cells at IC50 after 24 hrs by annexin V-FITC/propidium iodide staining based flow cytometric analysis (reference value: 0.2%); format: functional
[7] = tested on: MCF7; experiment: Induction of apoptosis in human MCF7 cells assessed as polarized mitochondrial membrane at IC50 after 48 hrs by JC-1 dye based FACS analysis (reference value: 90%); format: functional
[8] = tested on: MCF7; experiment: Cell cycle arrest in human MCF7 cells assessed as accumulation at G0/G1 phase at IC50 after 48 hrs by propidium iodide staining based flow cytometric analysis (reference value: 59.5%); format: functional
[9] = tested on: MCF7; experiment: Induction of apoptosis in human MCF7 cells assessed as late apoptotic cells at IC50 after 24 hrs by annexin V-FITC/propidium iodide staining based flow cytometric analysis (reference value: 0.0%); format: functional
[10] = tested on: MCF7; experiment: Induction of apoptosis in human MCF7 cells assessed as late apoptotic cells at IC50 after 48 hrs by annexin V-FITC/propidium iodide staining based flow cytometric analysis (reference value: 0.0%); format: functional
[11] = tested on: MCF7; experiment: Induction of apoptosis in human MCF7 cells assessed as increase in cleaved caspase-7 level at IC50 after 48 hrs by western blot analysis; format: functional, cell-based
[12] = tested on: MCF7; experiment: Induction of apoptosis in human MCF7 cells assessed as dead cells at IC50 after 48 hrs by annexin V-FITC/propidium iodide staining based flow cytometric analysis (reference value: 0.2%); format: functional
[13] = tested on: MCF7; experiment: Induction of ROS generation in human MCF7 cells at IC50 after 24 hrs by CM-H2DCFDA staining based flow cytometric analysis (reference value: 12.6%); format: functional
[14] = tested on: MCF7; experiment: Induction of apoptosis in human MCF7 cells assessed as rounded cells at IC50 after 24 hrs by inverted phase contrast microscopic analysis; format: functional, cell-based
[15] = tested on: MCF7; experiment: Cell cycle arrest in human MCF7 cells assessed as accumulation at G0/G1 phase at IC50 after 24 hrs by propidium iodide staining based flow cytometric analysis (reference value: 59.5%); format: functional
[16] = tested on: MCF7; experiment: Cell cycle arrest in human MCF7 cells assessed as accumulation at G2/M phase at IC50 after 24 hrs by propidium iodide staining based flow cytometric analysis (reference value: 24.2%); format: functional
[17] = tested on: MCF7; experiment: Induction of apoptosis in human MCF7 cells assessed as polarized mitochondrial membrane at IC50 after 24 hrs by JC-1 dye based FACS analysis (reference value: 90%); format: functional
[18] = tested on: MCF7; experiment: Induction of apoptosis in human MCF7 cells assessed as increase in cleaved caspase-9 level at IC50 after 48 hrs by western blot analysis; format: functional, cell-based
[19] = tested on: MCF7; experiment: Cell cycle arrest in human MCF7 cells assessed as accumulation at S phase at IC50 after 48 hrs by propidium iodide staining based flow cytometric analysis (reference value: 16.3%); format: functional
[20] = tested on: MCF7; experiment: Induction of apoptosis in human MCF7 cells assessed as progressive cell detachment at IC50 after 24 hrs by inverted phase contrast microscopic analysis; format: functional, cell-based
[21] = tested on: MCF7; experiment: Induction of apoptosis in human MCF7 cells assessed as depolarized mitochondrial membrane at IC50 after 24 hrs by JC-1 dye based FACS analysis (reference value: 10%); format: functional
[22] = tested on: MCF7; experiment: Cell cycle arrest in human MCF7 cells assessed as accumulation at S phase at IC50 after 24 hrs by propidium iodide staining based flow cytometric analysis (reference value: 16.3%); format: functional
[23] = tested on: MCF7; experiment: Induction of apoptosis in human MCF7 cells assessed as early apoptotic cells at IC50 after 24 hrs by annexin V-FITC/propidium iodide staining based flow cytometric analysis (reference value: 0.1%); format: functional
[24] = tested on: MCF7; experiment: Cell cycle arrest in human MCF7 cells assessed as accumulation at G2/M phase at IC50 after 48 hrs by propidium iodide staining based flow cytometric analysis (reference value: 24.2%); format: functional
[25] = tested on: MCF7; experiment: Induction of apoptosis in human MCF7 cells assessed as ratio of depolarized to polarized mitochondrial membrane at IC50 by JC-1 dye based FACS analysis; format: functional, cell-based; conditions: TDE = time-dependent effect
[26] = tested on: MCF7; experiment: Induction of apoptosis in human MCF7 cells assessed as depolarized mitochondrial membrane at IC50 after 48 hrs by JC-1 dye based FACS analysis (reference value: 10%); format: functional

Row | SMILES | Activity [1] [%] | Activity [2] [%] | Activity [3] [%] | IC50 [4] [µM] | Activity [5] | Activity [6] [%] | Activity [7] [%] | Activity [8] [%] | Activity [9] [%] | Activity [10] [%] | Activity [11] | Activity [12] [%] | Activity [13] [%] | Activity [14] | Activity [15] [%] | Activity [16] [%] | Activity [17] [%] | Activity [18] | Activity [19] [%] | Activity [21] [%] | further results
1 | C=C1CC[C@@H]2[C@](C)(CO)[C@H](O)CC[C@@]2(C)[C@@H]1CC1CN(Cc2ccccc2)[C@@]2(C(=O)Nc3ccc(C)cc32)[C@]12C(=O)OC[C@H]2O (some centres not stated) | 18.5 | 79.2 | 77.8 | 10.9 | Active | 0.8 | 11.1 | 37.9 | 0.6 | 1.5 | Active | 2.2 | 99.9 | Active | 42.4 | 29.1 | 21 | Active | 41.7 | 79 | Activity [20]: Active; Activity [22]: 28.5%; Activity [23]: 19.7%; Activity [24]: 19.4%; Activity [25]: tde; Activity [26]: 88.9%
2 | C=C1CC[C@@H]2[C@](C)(CO)[C@H](O)CC[C@@]2(C)[C@@H]1CC1CN(Cc2ccccc2)[C@@]2(C(=O)c3cccc4cccc2c34)[C@]12C(=O)OC[C@H]2O (some centres not stated) | 95 | 56.5 | 0.4 | 8.9 | Active | 0.3 | 3.6 | 32.3 | 0.8 | 4.6 | Active | 0 | 97.7 | Active | 46.3 | 29.8 | 17 | Active | 38.6 | 83 | Activity [20]: Active; Activity [22]: 23.9%; Activity [23]: 42.4%; Activity [24]: 27.5%; Activity [25]: tde; Activity [26]: 96.4%
3 | N#CC(C#N)=NNc1cccc(Cl)c1 [CARBONYL CYANIDE M-CHLOROPHENYLHYDRAZONE] |  |  |  |  |  |  |  |  |  |  |  |  |  |  |  |  | 0 |  |  | 100 | 
4 | C=C1CC[C@@H]2[C@](C)(CO)[C@H](O)CC[C@@]2(C)[C@@H]1CC1CN(Cc2ccccc2)[C@@]2(C(=O)Nc3c(F)cccc32)[C@]12C(=O)OC[C@H]2O (some centres not stated) | 57.8 | 76.3 | 36.7 | 13.7 | Active | 0.6 | 2.5 | 33.3 | 0.4 | 4.1 | Active | 1.4 | 96.2 | Active | 46.6 | 22.2 | 50.1 | Active | 48.1 | 50 | Activity [20]: Active; Activity [22]: 31.1%; Activity [23]: 22.7%; Activity [24]: 17.4%; Activity [25]: tde; Activity [26]: 97.5%
5 | C=C1CC[C@@H]2[C@](C)(CO)[C@H](O)CC[C@@]2(C)[C@@H]1CC1CN(Cc2ccccc2)[C@@]2(C(=O)Nc3ccc(Br)cc32)[C@]12C(=O)OC[C@H]2O (some centres not stated) | 93.9 | 61.4 | 1.7 | 12.8 | Active | 0.9 | 6.4 | 34.2 | 2 | 4.4 | Active | 0 | 98.1 | Active | 40.3 | 31.1 | 54.1 | Active | 43 | 46.1 | Activity [20]: Active; Activity [22]: 28.5%; Activity [23]: 35.7%; Activity [24]: 22%; Activity [25]: tde; Activity [26]: 93.1%
6 | C=C1CC[C@@H]2[C@](C)(CO)[C@H](O)CC[C@@]2(C)[C@@H]1CC1CN(Cc2ccccc2)[C@@]2(C(=O)Nc3ccc(Cl)cc32)[C@]12C(=O)OC[C@H]2O (some centres not stated) | 84.8 | 71.5 | 7.9 | 12.7 | Active | 0.9 | 10.2 | 42.9 | 0.7 | 7.1 | Active | 0.2 | 99.4 | Active | 42.7 | 29.5 | 37.7 | Active | 35.8 | 62.3 | Activity [20]: Active; Activity [22]: 27.8%; Activity [23]: 28.5%; Activity [24]: 20.2%; Activity [25]: tde; Activity [26]: 89.8%
